Results: ChEMBL document CHEMBL3045984, “Resistance to HPPD-inhibiting herbicides in a population of waterhemp (Amaranthus tuberculatus) from Illinois, United States” (2011)

Legend:
Format in all cases: functional
[1] = tested on: Amaranthus tuberculatus; assay: Herbicidal activity against Amaranthus tuberculatus biotype ACR assessed as visual injury at 105 g/ha applied as spray after 21 days under green house conditions relative to untreated control
[2] = tested on: Amaranthus tuberculatus; assay: Herbicidal activity against Amaranthus tuberculatus biotype MCR 16 assessed as visual injury at 105 g/ha applied as spray after 14 days under green house conditions relative to untreated control
[3] = tested on: Amaranthus tuberculatus; assay: Herbicidal activity against Amaranthus tuberculatus biotype MCR 15 assessed as visual injury at 105 g/ha applied as spray after 14 days under green house conditions relative to untreated control
[4] = tested on: Amaranthus tuberculatus; assay: Herbicidal activity against Amaranthus tuberculatus biotype MCR 12 assessed as visual injury at 105 g/ha applied as spray after 14 days under green house conditions relative to untreated control
[5] = tested on: Amaranthus tuberculatus; assay: Herbicidal activity against Amaranthus tuberculatus biotype MCR 12 assessed as visual injury at 105 g/ha applied as spray after 7 days under green house conditions relative to untreated control
[6] = tested on: Amaranthus tuberculatus; assay: Herbicidal activity against Amaranthus tuberculatus biotype WCS assessed as visual injury at 105 g/ha applied as spray after 21 days under green house conditions relative to untreated control
[7] = tested on: Amaranthus tuberculatus; assay: Herbicidal activity against Amaranthus tuberculatus biotype ACR assessed as visual injury at 105 g/ha applied as spray after 14 days under green house conditions relative to untreated control
[8] = tested on: Amaranthus tuberculatus; assay: Herbicidal activity against Amaranthus tuberculatus biotype WCS assessed as visual injury at 105 g/ha applied as spray after 14 days under green house conditions relative to untreated control
[9] = tested on: Amaranthus tuberculatus; assay: Herbicidal activity against Amaranthus tuberculatus biotype MCR 16 assessed as visual injury at 105 g/ha applied as spray after 7 days under green house conditions relative to untreated control
[10] = tested on: Amaranthus tuberculatus; assay: Herbicidal activity against Amaranthus tuberculatus biotype MCR 15 assessed as visual injury at 105 g/ha applied as spray after 7 days under green house conditions relative to untreated control
[11] = tested on: Amaranthus tuberculatus; assay: Herbicidal activity against Amaranthus tuberculatus biotype MCR 16 assessed as visual injury at 105 g/ha applied as spray after 21 days under green house conditions relative to untreated control
[12] = tested on: Amaranthus tuberculatus; assay: Herbicidal activity against Amaranthus tuberculatus biotype MCR 15 assessed as visual injury at 105 g/ha applied as spray after 21 days under green house conditions relative to untreated control
[13] = tested on: Amaranthus tuberculatus; assay: Herbicidal activity against Amaranthus tuberculatus biotype MCR 12 assessed as visual injury at 105 g/ha applied as spray after 21 days under green house conditions relative to untreated control
[14] = tested on: Amaranthus tuberculatus; assay: Herbicidal activity against Amaranthus tuberculatus biotype ACR assessed as visual injury at 105 g/ha applied as spray after 7 days under green house conditions relative to untreated control
[15] = tested on: Amaranthus tuberculatus; assay: Herbicidal activity against Amaranthus tuberculatus biotype WCS assessed as visual injury at 105 g/ha after 7 days applied as spray under green house conditions relative to untreated control
[16] = tested on: Amaranthus tuberculatus; assay: Herbicidal activity against Amaranthus tuberculatus biotype MCR assessed as mortality at 315 g/ha applied as spray after 21 days under green house conditions relative to untreated control; settings: 504 h
[17] = tested on: Amaranthus tuberculatus; assay: Herbicidal activity against Amaranthus tuberculatus biotype MCR assessed as mortality at 105 g/ha applied as spray after 21 days under green house conditions relative to untreated control; settings: 504 h
[18] = tested on: Amaranthus tuberculatus; assay: Herbicidal activity against Amaranthus tuberculatus biotype ACR assessed as visual injury at 315 g/ha applied as spray after 21 days under green house conditions relative to untreated control
[19] = tested on: Amaranthus tuberculatus; assay: Herbicidal activity against Amaranthus tuberculatus biotype WCS assessed as visual injury at 315 g/ha applied as spray after 21 days under green house conditions relative to untreated control
[20] = tested on: Amaranthus tuberculatus; assay: Herbicidal activity against Amaranthus tuberculatus biotype MCR assessed as decrease in shoot dry weight at 105 g/ha applied as spray during post-emergence after 21 days under green house conditions relative to untreated control; design: scale not given: the % may be the effect or the level left
[21] = tested on: Amaranthus tuberculatus; assay: Herbicidal activity against Amaranthus tuberculatus biotype ACR assessed as decrease in shoot dry weight at 105 g/ha applied as spray during post-emergence after 21 days under green house conditions relative to untreated control; design: scale not given: the % may be the effect or the level left
[22] = tested on: Amaranthus tuberculatus; assay: Herbicidal activity against Amaranthus tuberculatus biotype WCS assessed as decrease in shoot dry weight at 105 g/ha applied as spray during post-emergence after 21 days under green house conditions relative to untreated control; design: scale not given: the % may be the effect or the level left
[23] = tested on: Amaranthus tuberculatus; assay: Herbicidal activity against Amaranthus tuberculatus biotype WCS assessed as decrease in shoot dry weight applied as spray after 21 days under green house conditions
[24] = tested on: Amaranthus tuberculatus; assay: Herbicidal activity against Amaranthus tuberculatus biotype ACR assessed as decrease in shoot dry weight applied as spray after 21 days under green house conditions
[25] = tested on: Amaranthus tuberculatus; assay: Herbicidal activity against Amaranthus tuberculatus biotype MCR assessed as decrease in shoot dry weight applied as spray after 21 days under green house conditions
[26] = tested on: Amaranthus tuberculatus; assay: Herbicidal activity against Amaranthus tuberculatus biotype MCR 15 assessed as visual injury at 92 g/ha applied as spray after 14 days under green house conditions relative to untreated control
[27] = tested on: Amaranthus tuberculatus; assay: Herbicidal activity against Amaranthus tuberculatus biotype MCR 12 assessed as visual injury at 92 g/ha applied as spray after 14 days under green house conditions relative to untreated control
[28] = tested on: Amaranthus tuberculatus; assay: Herbicidal activity against Amaranthus tuberculatus biotype ACR assessed as visual injury at 92 g/ha applied as spray after 14 days under green house conditions relative to untreated control
[29] = tested on: Amaranthus tuberculatus; assay: Herbicidal activity against Amaranthus tuberculatus biotype MCR 12 assessed as visual injury at 92 g/ha applied as spray after 7 days under green house conditions relative to untreated control
[30] = tested on: Amaranthus tuberculatus; assay: Herbicidal activity against Amaranthus tuberculatus biotype WCS assessed as visual injury at 92 g/ha applied as spray after 21 days under green house conditions relative to untreated control
[31] = tested on: Amaranthus tuberculatus; assay: Herbicidal activity against Amaranthus tuberculatus biotype MCR 16 assessed as visual injury at 92 g/ha applied as spray after 14 days under green house conditions relative to untreated control
[32] = tested on: Amaranthus tuberculatus; assay: Herbicidal activity against Amaranthus tuberculatus biotype WCS assessed as visual injury at 92 g/ha applied as spray after 14 days under green house conditions relative to untreated control
[33] = tested on: Amaranthus tuberculatus; assay: Herbicidal activity against Amaranthus tuberculatus biotype MCR 16 assessed as visual injury at 92 g/ha applied as spray after 7 days under green house conditions relative to untreated control
[34] = tested on: Amaranthus tuberculatus; assay: Herbicidal activity against Amaranthus tuberculatus biotype MCR 15 assessed as visual injury at 92 g/ha applied as spray after 7 days under green house conditions relative to untreated control
[35] = tested on: Amaranthus tuberculatus; assay: Herbicidal activity against Amaranthus tuberculatus biotype MCR 16 assessed as visual injury at 92 g/ha applied as spray after 21 days under green house conditions relative to untreated control
[36] = tested on: Amaranthus tuberculatus; assay: Herbicidal activity against Amaranthus tuberculatus biotype MCR 15 assessed as visual injury at 92 g/ha applied as spray after 21 days under green house conditions relative to untreated control
[37] = tested on: Amaranthus tuberculatus; assay: Herbicidal activity against Amaranthus tuberculatus biotype MCR 12 assessed as visual injury at 92 g/ha applied as spray after 21 days under green house conditions relative to untreated control
[38] = tested on: Amaranthus tuberculatus; assay: Herbicidal activity against Amaranthus tuberculatus biotype ACR assessed as visual injury at 92 g/ha applied as spray after 21 days under green house conditions relative to untreated control
[39] = tested on: Amaranthus tuberculatus; assay: Herbicidal activity against Amaranthus tuberculatus biotype ACR assessed as visual injury at 92 g/ha applied as spray after 7 days under green house conditions relative to untreated control
[40] = tested on: Amaranthus tuberculatus; assay: Herbicidal activity against Amaranthus tuberculatus biotype WCS assessed as visual injury at 92 g/ha applied as spray after 7 days under green house conditions relative to untreated control

SMILES: CS(=O)(=O)c1ccc(C(=O)C2C(=O)CCCC2=O)c([N+](=O)[O-])c1 [MESOTRIONE]
- Activity [1]: 88%
- Activity [2]: 45%
- Activity [3]: 36%
- Activity [4]: 24%
- Activity [5]: 40%
- Activity [6]: 100%
- Activity [7]: 90%
- Activity [8]: 96%
- Activity [9]: 48%
- Activity [10]: 37%
- Activity [11]: 27%
- Activity [12]: 26%
- Activity [13]: 13%
- Activity [14]: 63%
- Activity [15]: 85%
- mortality at 315 g/ha [16]: 33%
- mortality at 105 g/ha [17]: 0%
- Activity [18]: 100%
- Activity [19]: 100%
- Activity [20]: 60%
- Activity [21]: >90%
- Activity [22]: >90%
- GR50 [23]: 1.4 g/ha
- GR50 [24]: 4.9 g/ha
- GR50 [25]: 48.5 g/ha

SMILES: CS(=O)(=O)c1ccc(C(=O)C2C(=O)CCCC2=O)c(Cl)c1COCC(F)(F)F [TEMBOTRIONE]
- Activity [26]: 34%
- Activity [27]: 30%
- Activity [28]: 91%
- Activity [29]: 40%
- Activity [30]: 100%
- Activity [31]: 46%
- Activity [32]: 96%
- Activity [33]: 43%
- Activity [34]: 48%
- Activity [35]: 31%
- Activity [36]: 35%
- Activity [37]: 17%
- Activity [38]: 94%
- Activity [39]: 56%
- Activity [40]: 84%
